Assay results reported in patent US9932300B2, “N,N′-diarylurea compounds and N,N′-diarylthiourea compounds as inhibitors of translation initiation” (President and Fellows of Harvard College, priority 2009, dated 2018).

Test system: eIF2-GTP-Met-tRNAi ternary complex
Test: Ternary complex assay (dual luciferase, firefly/renilla ratio) in stable KLN-tTA/pBISA-DL(ATF-4) cells; HTS and hit confirmation
Format: cell-based, mouse
Design: Activity 10 uM / Activity 2.5 uM / Activity 5 uM: unit not given here
Conditions: confirmed hits of the screen (Table 5); for Activity 2.5 uM: compound at 2.5 uM; for Activity 10 uM: compound at 10 uM; for Activity 5 uM: compound at 5 uM

Row | Compound | Activity 2.5 uM | Activity 10 uM | Activity 5 uM
1 | CCOC(=O)c1ccc(Nc2nc3ccccc3o2)cc1 [Compound 114995] | 2.69 | 3.43 | –
2 | c1ccc(N=Nc2ccc[nH]2)cc1 [Compound 115157] | – | 40.7 | 7.1
3 | Cc1ccc([P+](Cc2ccccc2)(c2ccccc2)c2ccc(C)cc2)cc1 [Compound 116685] | – | 4.5 | 1.9
4 | CN1c2ccc(Br)c[c]2[Sn]([CH3])([CH3])[c]2cc(Br)ccc21 [Compound 118026] | – | 40.338 | 37.512
5 | CN1c2cccc[c]2[Sn]([CH3])([CH3])[c]2ccccc21 [Compound 118028] | – | 4.1 | –
6 | CSC1=CC(=O)C=C(C)C1=O [Compound 119026] | – | 12.6 | 4
7 | CCN1/C(=C\c2ccc3cc(C)ccc3[n+]2CC)[Se]c2ccccc21.[I-] [Compound 119675] | 5.52 | 8.78 | –
8 | Oc1ccccc1/C=N\N=C\c1ccco1 [Compound 119688] | – | 3.9 | 2.45
9 | CC(C)c1ccc(/C=C2\C=Cc3ccccc32)cc1 [Compound 120440] | – | 3.8 | 2.3
10 | CC(=O)Oc1ccccc1/C=C/NC(=O)OC(C)(C)C [Compound 122241] | – | 5 | 3.2
11 | CCCCCCCCCCCCCCCCCC[n+]1cccc(C(=O)c2ccccc2)c1.[Br-] [Compound 122844] | 1.77 | 13.27 | –
12 | CCCCCCCC(=O)[O][Hg][c]1ccccc1 [Compound 122854] | – | 3.2 | –
13 | CC(C)=CCC1=CC(=O)c2ccccc2C1=O [Compound 123507] | – | 10.5 | 2.41
14 | CN(C)CC1CC2C3CC=C4CC(O)CCC4(C)C3CCC2(C)C1=O (stereo not drawn) [Compound 124738] | 0.79 | 3.7 | –
15 | O=C(CCl)Nc1ccc(O)c2ccccc12 [Compound 125369] | 1.08 | 9.98 | –
16 | CCC[CH2][Sn]([CH2]CCC)([CH2]CCC)[CH2]C(C)(C)c1ccccc1 [Compound 126650] | 0.64 | 8.04 | –
17 | CCOC(=N)c1cn(C2OC(CO)C(O)C2O)c2nc[nH]c(=O)c12.Cl (stereo not drawn) [Compound 128665] | 17.83 | 3.18 | –
18 | O=[N+]([O-])c1cc(Cl)ccc1NC(Nc1ccc(Cl)cc1[N+](=O)[O-])C(Cl)(Cl)Cl [Compound 130140] | 0.74 | 19.67 | –
19 | CC(=O)Oc1ccc(N(CCCl)CCCl)cc1OC(C)=O [Compound 130216] | 0.51 | 4.77 | –
20 | CCCCCc1[nH]nc(C(=O)OC)c1N=NN1CCOCC1 [Compound 131237] | 0.87 | 3.3 | –
21 | c1ccc(-c2ccc3c4ccccc4ccn23)cc1 [Compound 131464] | 3.63 | 3.99 | –
22 | CC[Si](CC)(CC)[Si](c1ccccc1)(c1ccccc1)c1ccccc1 [Compound 131584] | 0.89 | 7.95 | –

Row | Compound | Activity 2.5 uM | Activity 10 uM | Activity 5 uM
23 | N=C(N)c1cn(C2OC(CO)C(O)C2O)c2ncnc(N)c12 (stereo not drawn) [Compound 131663] | 7 | 8.18 | –
24 | COc1ccc(Cc2cncc3c(O)c(OC)ccc23)cc1O [Compound 131747] | 2.54 | 3.25 | –
25 | CCCCCCCCCCCCOC(=O)c1cc(O)c(O)c(O)c1 [Compound 133463] | – | 4.63 | 8.8
26 | Nc1c(Br)cc2c([nH]c(=O)c3cc(Cl)ccc32)c1Br [Compound 134404] | 5.44 | 12.72 | –
27 | Cl.Clc1ccc(C2NC(c3ccc(Cl)cc3)NC(c3ccc(Cl)cc3)N2)cc1 (stereo not drawn) [Compound 135155] | 0.94 | 7.19 | –
28 | O=S(=O)(c1ccccc1)N1CC2CC(Br)C(Br)CC21 (stereo not drawn) [Compound 135331] | – | 31.606 | 15.388
29 | C(C[P+](c1ccccc1)(c1ccccc1)c1ccccc1)=C(c1ccccc1)c1ccccc1 [Compound 135741] | – | 7.226 | 8.605
30 | CN1N=C([P+](c2ccccc2)(c2ccccc2)c2ccccc2)CC1(c1ccccc1)c1ccccc1.[I-] [Compound 135744] | – | 21.9 | 7
31 | CCOC(=O)CN1N=C([P+](c2ccccc2)(c2ccccc2)c2ccccc2)CC1(c1ccccc1)c1ccccc1.[Br-] [Compound 135745] | – | 6.5 | 3.2
32 | O=[N+]([O-])c1ccccc1N/N=C\c1c[nH]c2ccccc12 [Compound 135854] | 3.56 | 5.75 | –
33 | COc1cccc2c1n([O-])c1cccc(=O)c-1[n+]2[O-].COc1cccc2c1n([O-])c1cccc(=O)c-1[n+]2[O-].[Cu+2] [Compound 136768] | – | 3.271 | 4.668
34 | CCCN(CCC)N=Nc1c(-c2ccccc2)n[nH]c1-c1ccccc1 [Compound 136886] | – | 28.5 | 2.5
35 | CCCCN(C)N=Nc1c(-c2ccccc2)n[nH]c1-c1ccccc1 [Compound 136889] | – | 16.7 | 3.9
36 | CC(=O)Oc1c2c(c(CC=C(C)C)c3c1C(=O)C1=CC4CC5C(C)(C)OC(C/C=C(/C)C(=O)O)(C4=O)C15O3)OC(C)(CCC=C(C)C)C=C2 (stereo not drawn) [Compound 139221] | – | 9 | 2.1
37 | CCCCCCCCCCCCCCNC(=O)C[N+](C)(C)Cc1ccccc1.[Cl-] [Compound 141112] | 0.98 | 3.76 | –
38 | N#Cc1ncc(Cl)cc1[N+](=O)[O-] [Compound 141226] | 1.05 | 3.5 | –
39 | O=C(Cc1ccccc1)c1ccc2c3c(ccc([N+](=O)[O-])c13)CC2 [Compound 142606] | 16.57 | 34.1 | –
40 | CO[C@H]1/C=C/O[C@@]2(C)Oc3c(C)c(O)c4c(O)c(c(/C=N/Nc5ccc([N+](=O)[O-])cc5[N+](=O)[O-])c(O)c4c3C2=O)NC(=O)/C(C)=C\C=C\[C@H](C)[C@H](O)[C@@H](C)[C@@H](O)[C@@H](C)[C@H](OC(C)=O)[C@@H]1C [Compound 144126] | – | 7.3 | 1.3
41 | Cl.S=C(N/N=C/c1ccccn1)N/N=C/c1ccccn1 [Compound 146007] | – | 3.4 | 1.8
42 | CC[N+](CC)=c1ccc2nc3c(cc(N)c4ccccc43)oc-2c1.[Cl-] [Compound 146184] | 3.13 | – | –
43 | c1ccc(N/N=C(/CC/C(=N\Nc2ccccc2)c2ccccc2)c2ccccc2)cc1 [Compound 146216] | 2.73 | 5.04 | –
44 | CC(C)(C)C[CH2][Hg][Cl] [Compound 146249] | 3.04 | – | –

Row | Compound | Activity 2.5 uM | Activity 10 uM | Activity 5 uM
45 | CCCCCCCCCCCc1n(Cc2ccccc2)c2ccccc2[n+]1C.[Br-] [Compound 148342] | – | 19.7555 | 14.51
46 | CCCCSC1=CC(=O)c2ccccc2C1=O [Compound 149109] | 18.18 | – | –
47 | COc1cccc2c1C(=O)c1c(O)c3c(c(O)c1C2=O)C[C@@](O)(C(=O)COC(C)=O)C[C@@H]3OC1CC(N)C(O)C(C)O1.Cl (stereo partly drawn) [Compound 149581] | – | 4.3 | 3.5
48 | OC(Br)C1C(c2ccccc2)N1C1CCCCC1 (stereo not drawn) [Compound 150279] | 0.62 | 3.9 | –
49 | Br.O=C(/C(=C\c1ccccc1)CN1CCOCC1)c1ccc(Br)cc1 [Compound 150311] | – | 39.7 | 36.67
50 | O=C(/C=C(\CN1CCCCC1)c1ccccc1)c1ccccc1 [Compound 150320] | – | 16.4 | 19.9
51 | Cc1ccc2c(c1)SCc1c-2[nH]c2ccccc12 [Compound 150787] | 2.94 | 5.6 | –
52 | CC(N)c1ccc(OCCOc2ccc(C(C)(C)CC(C)(C)C)cc2)cc1 (stereo not drawn) [Compound 151117] | 0.85 | 12.07 | –
53 | CC(C)(C)CC(C)(C)c1ccc(OCCOc2ccc(C(=O)Nc3ccc([N+](=O)[O-])cc3)cc2)cc1 [Compound 151119] | 0.72 | 6.62 | –
54 | CCCCCC[N+](CCCCCC)(CCCCCC)CCCCCC.O=C([O-])c1ccccc1 [Compound 152111] | – | 10.391 | 10.85
55 | CCCCCCCCCCCCCCC[N+](C)(C)C.[Cl-] [Compound 155015] | 2.19 | 3.73 | –
56 | CN(C)c1ccc(C(C[N+](=O)[O-])(c2ccc(N(C)C)cc2)c2ccc(N(C)C)cc2)cc1 [Compound 156572] | – | 7.9345 | 7.884
57 | O=C(Nc1ccccc1O)/C(Cl)=C/Cl [Compound 157236] | 0.75 | 3.4 | –
58 | CCOC(=O)c1[nH]c(-c2ccc(OC)cc2)c(C(=O)OCC)c1-c1ccccc1 [Compound 157306] | 1.77 | 3.94 | –
59 | c1ccc2c(c1)O[As](O[As]1Oc3ccccc3O1)O2 [Compound 157382] | 0.68 | 9.04 | –
60 | Cc1cc(C)c(C(=O)Oc2ccc3ccccc3c2)c(C)c1 [Compound 157507] | 2.07 | 3.33 | –
61 | NNc1nc2ccc([N+](=O)[O-])cc2s1 [Compound 158091] | 1.66 | 4.83 | –
62 | O=C(Nc1ccc2ccccc2c1)c1ccc(Cl)cc1Cl [Compound 158959] | 3.2 | 4.01 | –
63 | c1ccc2ncc(-c3ccc4ccccc4n3)cc2c1 [Compound 159209] | – | 8.5 | 4.3
64 | CC1=C(Br)C(=O)C(c2c(C)cc(C)c(Br)c2C)=C(Br)C1=O [Compound 159569] | – | 5.804 | 3.21
